Test results reported in article PMC3429506, “Screening for Novel LRRK2 Inhibitors Using a High-Throughput TR-FRET Cellular Assay for LRRK2 Ser935 Phosphorylation” (PLoS ONE, 2012).

Key:
LRRK2 G2019S [1] = molecular target: T1, LRRK2 G2019S (Homo sapiens, UniProt Q5S007, G2019S); experiment: In vitro biochemical LRRK2 TR-FRET activity assay; details: for IC50: LRRK2 G2019S, ATP 134 µM (Km,app), LRRKtide substrate, three independent experiments, read-out: Biochemical LRRK2 assay IC50 +/- SD
Protocol: The Biochemical LRRK2 TR-FRET activity assay was performed according to the manufacture recommended assay protocol (Life Technologies). […] After incubation at room temperature for 1 hour, the kinase reactions were stopped by addition of 10 µL of 20 mM EDTA and 4 nM Tb-anti-pERM (pLRRKtide) antibody in TR-FRET dilution buffer (Life Technologies). After a 30 minute incubation at room temperature, TR-FRET measurements were obtained on a BMG PHERAstar plate reader using LanthaScreen® filters and settings. A 16 point, 2-fold dilution series of each compound was tested in triplicate at each concentration and assays were also performed in triplicate.

GFP-LRRK2 G2019S = molecular target: T2, GFP-LRRK2 G2019S (Homo sapiens, UniProt Q5S007, G2019S); experiment: Immunoprecipitation/Western analysis of LRRK2 phosphorylation at Ser910, Ser935, Ser955, Ser973 in HEK293 T-REx GFP-LRRK2 G2019S cells; type: cell-based; details: for effect on phosphorylation of Ser910, Ser935, Ser955 and Ser973 (IP-Western): 20 µM, 90 min, HEK293 GFP-LRRK2 G2019S, Figure 6
T2 construct: expressed in transfected cells
Protocol: (§1) Immunoblot analysis: BacMam LRRK2-GFP transduced U-2 OS or SH-SY5Y cells (10^7 cells) were left untreated or treated with 3 µM LRRK2-IN-I for 90 min. For lysate preparation, the cells were washed once with ice-cold PBS and lysed by addition of ice-cold lysis buffer (20 mM Tris-HCl, pH 7.4, 1% NP-40, 5 mM EDTA, 5 mM NaF, 150 mM NaCl, and 1∶100 of protease and phosphatase inhibitor cocktails). The lysate was cleared of debris by centrifugation. Equal amount of total protein was loaded onto each lane for SDS-PAGE (3–8% Tris Acetate). The proteins were transferred onto nitrocellulose membrane using the iBLOT® dry blotting system (Life Technologies) according to manufacturer’s protocol. The membranes were blocked and incubated with a primary antibody against LRRK2 (Cell Signaling Technologies), followed by incubation with alkaline phosphatase-conjugated secondary antibody (WesternBreeze® chromogenic Kit, Life Technologies). The blot was developed by using the chromogenic BCIP/NBT substrate (WesternBreeze® chromogenic Kit, Life Technologies). […] Two days post induction, cells were treated for 90 minutes in the presence of 20 µM of compound or DMSO vehicle control. Cells were rapidly lysed in ice cold lysis buffer 50 mM Tris/HCl, pH 7.5, 1 mM EGTA, 1 mM EDTA, […] 1 mM sodium orthovanadate, 10 mM sodium beta-glycerolphosphate, 50 mM NaF, 5 mM sodium pyrophosphate, 0.27 M sucrose, 1 mM benzamidine and 2 mM phenylmethanesulphonylfluoride (PMSF) and one tablet each complete protease inhibitor and PhosSTOP phosphatase inhibitor (Roche) and was supplemented with 1% (v/v) Triton X-100. GFP-LRRK2 was immunoprecipitated with GFP nanotrap beads (ChromoTek). Immunecomplexes were washed twice with lysis buffer supplemented with 300 mM NaCl and once with Buffer A (50 mM Tris/HCl, pH 7.5, 50 mM NaCl, 0.1 mM EGTA and 0.1% (v/v) 2-mercaptoethanol, and 0.27 M sucrose).

LRRK2 A2016T/G2019S = molecular target: T3, LRRK2 A2016T/G2019S (Homo sapiens, UniProt Q5S007, A2016T/G2019S); experiment: Immunoprecipitation/Western analysis of LRRK2 phosphorylation in T-REx HEK293 cells expressing inhibitor desensitizing mutant; type: cell-based; details: for effect of desensitizing mutation A2016T/G2019S on compound-induced dephosphorylation (IP-Western): 20 µM, Figure 6 IRM
T3 construct: expressed in transfected cells
Protocol: as §1

[2] = system: SH-SY5Y cells expressing LRRK2-GFP G2019S; experiment: Cytotoxicity assay (resazurin-based cell viability); details: read-out: Cytotoxicity Assay IC50; same conditions as TR-FRET follow-up; one representative of two experiments
LRRK2 G2019S [3] = molecular target: T1, LRRK2 G2019S; experiment: TR-FRET cellular assay for LRRK2 Ser935 phosphorylation, SH-SY5Y cells, BacMam LRRK2-GFP G2019S (incl. Tocriscreen Mini library screen and follow-up); type: cell-based; set-up: This high-throughput assay utilizes cells expressing full-length human LRRK2 with a C-terminal GFP tag (LRRK2-GFP); host or cells: SH-SY5Y cells transduced with BacMam; details: for %Inhibition Initial screen: Tocriscreen Mini library screen, 20 µM, relative to LRRK2-IN-1 control; for Cellular TR-FRET Assay Max % Inhibition: 90 min; for IC50: three independent experiments
Protocol: (§2) U-2 OS cells are maintained in growth medium (McCoy’s 5A supplemented with 10% dialyzed FBS (dFBS), 10 mM HEPES, 0.1 mM NEAA, 1 mM Sodium Pyruvate, and 100 U/mL Penicillin/100 µg/mL Streptomycin). HEK293T cells are maintained in DMEM with 10% dFBS, 10 mM HEPES, 0.1 mM NEAA and 100 U/mL Penicillin/100 µg/mL Streptomycin. SH-SY5Y cells are maintained in DMEM/F-12 medium supplemented with 10% dFBS and 100 U/mL Penicillin/100 µg/mL Streptomycin. […] GIBCO® human neural stem cells (hNSCs) were propagated as an adherent culture in StemPro® NSC SFM according to the manufacturer’s recommended protocol (Life Technologies). For BacMam transduction of U-2 OS and HEK293T, cells were harvested, mixed with various amounts of BacMam LRRK2-GFP reagent (v/v) and plated onto 6-well plates. […] Cells were assayed in 384-well format (∼20,000 cells/well) 48 hours post-transduction as above.
(§3) Transduced cells in the 384-well assay plate were incubated with indicated inhibitors (5X, 5 µL/well) for 60 to 90 minutes. During this time, 6 X lysis buffer (Life Technologies) was supplemented with 30 nM Tb-labeled anti-LRRK2 pSer935 antibody and both protease and phosphatase inhibitor cocktails (Sigma). The complete 6 X lysis buffer was added to each well (5 µL/well) and the plates were incubated at room temperature in the dark for 2 hours. […] A sigmoidal dose-response equation with varying slope was used to fit the data and generate IC50 values. Z′-factor values were calculated as: Z′-factor = 1 - [(3 × stdevno virus +3 × stdevmaxvirus)/(avgmaxvirus – avgno-virus)]. The IC50 values reported in Table 1 are the averaged numbers from three independent experiments.
40 nL of 10 mM Tocris library compounds in DMSO were dispensed into each well of the assay plate by the ECHO system. Equal volumes of DMSO were dispensed into the control wells. Cells were incubated with compounds for 90 to 120 min prior to cell lysis and detection as described above. The percent inhibition is calculated as: [(average emission ratios of DMSO control wells – average emission ratios of compound wells)/(average emission ratios of DMSO control wells – average emission ratios of LRRK2-IN-1 treated wells)] * 100. For the dose-response follow-up studies, fresh compound DMSO stock solutions were prepared from powder. […] Z′-factor value was calculated as: Z′-factor = 1 - [(3 × stdevLRRK2-IN-1+3 × stdevDMSO)/(avgDMSO – avgLRRK2-IN-1)]. The IC50 values reported in Table 2 are the averaged numbers from three independent experiments for both cellular and biochemical TR-FRET assays and one representative result of two independent experiments for the cytotoxicity assay.

LRRK2 wild-type [4] = molecular target: T4, LRRK2 wild-type (Homo sapiens, UniProt Q5S007); experiment: TR-FRET cellular assay for LRRK2 Ser935 phosphorylation, U-2 OS cells, BacMam LRRK2-GFP wild-type; type: cell-based; set-up: This high-throughput assay utilizes cells expressing full-length human LRRK2 with a C-terminal GFP tag (LRRK2-GFP); host or cells: U-2 OS cells transduced with BacMam; details: WT, +/- SD, three independent experiments, * = partial inhibition, read-out: IC50, TR-FRET cell-based assay for Ser935 phosphorylation of LRRK2
Protocol: as §2, §3

LRRK2 wild-type [5] = molecular target: T4, LRRK2 wild-type; experiment: TR-FRET cellular assay for LRRK2 Ser935 phosphorylation, SH-SY5Y cells, BacMam LRRK2-GFP wild-type; type: cell-based; set-up: This high-throughput assay utilizes cells expressing full-length human LRRK2 with a C-terminal GFP tag (LRRK2-GFP); host or cells: SH-SY5Y cells transduced with BacMam; details: WT, +/- SD, three independent experiments, * = partial inhibition, read-out: IC50, TR-FRET cell-based assay for Ser935 phosphorylation of LRRK2
Protocol: as §2, §3

LRRK2 wild-type [6] = molecular target: T4, LRRK2 wild-type; experiment: TR-FRET cellular assay for LRRK2 Ser935 phosphorylation, HEK293T cells, BacMam LRRK2-GFP wild-type; set-up: This high-throughput assay utilizes cells expressing full-length human LRRK2 with a C-terminal GFP tag (LRRK2-GFP); host or cells: HEK293T cells transduced with BacMam; details: WT, +/- SD, three independent experiments, * = partial inhibition, read-out: IC50, TR-FRET cell-based assay for Ser935 phosphorylation of LRRK2
Protocol: as §2, §3

LRRK2 G2019S [7] = molecular target: T1, LRRK2 G2019S; experiment: TR-FRET cellular assay for LRRK2 Ser935 phosphorylation, HEK293T cells, BacMam LRRK2-GFP G2019S; set-up: This high-throughput assay utilizes cells expressing full-length human LRRK2 with a C-terminal GFP tag (LRRK2-GFP); host or cells: HEK293T cells transduced with BacMam; details: +/- SD, three independent experiments, * = partial inhibition, read-out: IC50, TR-FRET cell-based assay for Ser935 phosphorylation of LRRK2
Protocol: as §2, §3

LRRK2 G2019S [8] = molecular target: T1, LRRK2 G2019S; experiment: TR-FRET cellular assay for LRRK2 Ser935 phosphorylation, U-2 OS cells, BacMam LRRK2-GFP G2019S; type: cell-based; set-up: This high-throughput assay utilizes cells expressing full-length human LRRK2 with a C-terminal GFP tag (LRRK2-GFP); host or cells: U-2 OS, SH-SY5Y, HEK293T cells or human neural stem cells transduced with BacMam; details: G2019S, +/- SD, three independent experiments, * = partial inhibition, read-out: IC50, TR-FRET cell-based assay for Ser935 phosphorylation of LRRK2
Protocol: as §2, §3

[9] = dose-response follow-up, SH-SY5Y G2019S
[10] = dose-response follow-up, SH-SY5Y G2019S, read-out: Cellular TR-FRET Assay IC50 +/-SD
[11] = SH-SY5Y, G2019S, +/- SD, * = partial inhibition, read-out: IC50, TR-FRET cell-based assay for Ser935 phosphorylation of LRRK2

T2 sequence (Q5S007 whole entry G2019S): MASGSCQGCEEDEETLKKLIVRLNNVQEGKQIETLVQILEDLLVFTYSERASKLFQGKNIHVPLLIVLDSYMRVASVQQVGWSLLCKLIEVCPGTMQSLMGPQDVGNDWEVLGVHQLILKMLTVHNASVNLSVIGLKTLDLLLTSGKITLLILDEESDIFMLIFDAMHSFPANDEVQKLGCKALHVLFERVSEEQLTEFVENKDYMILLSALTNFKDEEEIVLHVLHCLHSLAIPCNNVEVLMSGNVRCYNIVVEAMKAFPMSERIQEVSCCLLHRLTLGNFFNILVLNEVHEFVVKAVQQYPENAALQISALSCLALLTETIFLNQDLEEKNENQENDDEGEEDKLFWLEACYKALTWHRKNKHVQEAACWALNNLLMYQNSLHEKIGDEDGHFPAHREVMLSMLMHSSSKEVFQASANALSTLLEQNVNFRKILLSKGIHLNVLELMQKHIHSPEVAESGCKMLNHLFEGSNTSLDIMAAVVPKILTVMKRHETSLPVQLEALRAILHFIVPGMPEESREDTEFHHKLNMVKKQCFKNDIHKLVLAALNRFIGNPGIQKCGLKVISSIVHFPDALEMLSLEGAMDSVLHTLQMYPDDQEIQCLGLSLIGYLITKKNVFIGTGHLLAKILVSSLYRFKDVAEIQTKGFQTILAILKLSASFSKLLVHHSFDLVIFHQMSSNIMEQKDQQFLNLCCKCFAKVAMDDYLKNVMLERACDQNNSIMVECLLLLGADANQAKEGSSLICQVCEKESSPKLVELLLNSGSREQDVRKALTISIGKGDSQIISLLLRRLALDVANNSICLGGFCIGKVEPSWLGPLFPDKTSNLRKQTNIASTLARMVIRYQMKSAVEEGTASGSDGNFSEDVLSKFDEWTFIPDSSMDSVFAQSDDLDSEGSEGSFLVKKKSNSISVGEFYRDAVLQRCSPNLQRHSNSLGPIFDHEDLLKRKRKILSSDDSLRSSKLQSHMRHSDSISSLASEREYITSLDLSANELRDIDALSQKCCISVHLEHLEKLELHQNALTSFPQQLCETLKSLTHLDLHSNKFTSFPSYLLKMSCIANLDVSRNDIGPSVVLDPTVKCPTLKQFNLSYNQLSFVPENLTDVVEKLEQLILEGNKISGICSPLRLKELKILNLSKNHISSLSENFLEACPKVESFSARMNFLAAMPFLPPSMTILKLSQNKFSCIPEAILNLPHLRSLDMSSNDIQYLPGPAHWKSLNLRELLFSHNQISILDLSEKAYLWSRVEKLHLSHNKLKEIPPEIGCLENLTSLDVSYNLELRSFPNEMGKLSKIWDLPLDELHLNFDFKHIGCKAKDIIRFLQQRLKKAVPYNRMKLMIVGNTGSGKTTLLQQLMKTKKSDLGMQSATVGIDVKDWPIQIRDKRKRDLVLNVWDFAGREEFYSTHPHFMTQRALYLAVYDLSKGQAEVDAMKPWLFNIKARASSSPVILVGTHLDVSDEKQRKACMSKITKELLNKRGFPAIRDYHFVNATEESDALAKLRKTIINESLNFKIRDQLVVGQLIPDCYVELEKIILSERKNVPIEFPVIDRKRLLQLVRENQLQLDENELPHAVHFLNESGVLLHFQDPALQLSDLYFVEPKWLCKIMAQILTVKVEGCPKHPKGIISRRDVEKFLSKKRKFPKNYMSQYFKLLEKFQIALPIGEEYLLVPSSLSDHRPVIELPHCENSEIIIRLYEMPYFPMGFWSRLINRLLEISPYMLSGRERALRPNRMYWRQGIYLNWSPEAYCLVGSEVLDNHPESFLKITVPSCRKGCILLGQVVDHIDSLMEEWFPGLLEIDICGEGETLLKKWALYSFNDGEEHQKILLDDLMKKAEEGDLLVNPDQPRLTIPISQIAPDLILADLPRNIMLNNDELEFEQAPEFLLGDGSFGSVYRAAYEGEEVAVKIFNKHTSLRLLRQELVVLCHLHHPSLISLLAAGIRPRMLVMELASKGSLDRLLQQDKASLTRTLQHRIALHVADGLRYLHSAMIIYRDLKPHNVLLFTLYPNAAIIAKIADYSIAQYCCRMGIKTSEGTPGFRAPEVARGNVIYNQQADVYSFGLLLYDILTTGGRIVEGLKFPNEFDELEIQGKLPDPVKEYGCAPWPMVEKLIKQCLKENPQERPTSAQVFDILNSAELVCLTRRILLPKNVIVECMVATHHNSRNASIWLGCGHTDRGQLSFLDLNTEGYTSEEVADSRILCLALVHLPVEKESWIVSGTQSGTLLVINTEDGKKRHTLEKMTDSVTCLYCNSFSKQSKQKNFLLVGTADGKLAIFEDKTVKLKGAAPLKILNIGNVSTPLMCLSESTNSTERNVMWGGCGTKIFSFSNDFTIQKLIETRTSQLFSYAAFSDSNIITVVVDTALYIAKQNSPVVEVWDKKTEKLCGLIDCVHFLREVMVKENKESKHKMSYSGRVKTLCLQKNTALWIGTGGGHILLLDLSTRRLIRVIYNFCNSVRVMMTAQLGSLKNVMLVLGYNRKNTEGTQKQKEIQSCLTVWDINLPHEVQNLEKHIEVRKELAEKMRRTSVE
T1 sequence (Q5S007 whole entry G2019S): as above
T4 sequence (Q5S007 whole entry): as the sequence (Q5S007 whole entry G2019S) above, with S2019G counted along it
T3 sequence (Q5S007 whole entry A2016T/G2019S): as the sequence (Q5S007 whole entry G2019S) above, with A2016T counted along it

| SMILES | IC50 (LRRK2 G2019S [1]) | effect on phosphorylation of Ser910, Ser935, Ser955 and Ser973 (IP-Western) (GFP-LRRK2 G2019S) | effect of desensitizing mutation A2016T/G2019S on compound-induced dephosphorylation (IP-Western) (LRRK2 A2016T/G2019S) | IC50 [2] | %Inhibition Initial screen (LRRK2 G2019S [3]; SH-SY5Y G2019S) | Cellular TR-FRET Assay Max % Inhibition (LRRK2 G2019S [3]; [9]) | IC50 (LRRK2 G2019S [3]; [10]) | IC50 (LRRK2 wild-type [4]) | IC50 (LRRK2 wild-type [5]) | IC50 (LRRK2 G2019S [3]; [11]) | IC50 (LRRK2 wild-type [6]) | IC50 (LRRK2 G2019S [7]) | IC50 (LRRK2 G2019S [8]) | effect on LRRK2 activity in vitro (LRRK2 G2019S [1]; result in words) | LRRK2 phosphorylation remaining, % of untreated G2019S (GFP-LRRK2 G2019S; 293 cells, LRRK2 G2019S) | LRRK2 phosphorylation remaining, % of untreated G2019S (LRRK2 A2016T/G2019S; 293 cells, LRRK2 G2019S/A2016T) |
| --- | --- | --- | --- | --- | --- | --- | --- | --- | --- | --- | --- | --- | --- | --- | --- | --- |
| Cn1cc(/C=C2\C(=O)Nc3cccnc32)c2ccccc21 [GW 441756] | 0.32 µM | inhibited phosphorylation of Ser910, Ser935, Ser955 and Ser973 | rescued phosphorylation | > 20 µM | 69.7% | 72% | 2.2 µM | – | – | – | – | – | – | – | – | – |
| Cc1cncc2cccc(S(=O)(=O)N3CCCNC[C@@H]3C)c12 [H-1152] | – | – | – | – | – | – | – | 3.28 µM | 1.66 µM | 0.77 µM | 2.94 µM | 1.38 µM | 0.89 µM | – | – | – |
| O=C1NC(=O)c2c1c1c3ccccc3n3c1c1c2c2ccccc2n1C1CCC3O1 [SB 218078] | – | moderately reduced phosphorylation of all four residues | did not appear to be changed | > 20 µM | 55.3% | 54% | 9.5 µM | – | – | – | – | – | – | – | – | – |
| Cc1ccc(S(=O)(=O)/C=C/C#N)cc1 [Bay 11-7821] | > 100 µM | moderately reduced phosphorylation of all four residues | did not appear to be changed | 20 µM | 85.5% | 94% | 4 µM | – | – | – | – | – | – | did not repress LRRK2 activity in vitro | 50% | 50% |
| O=C1Nc2ccc(I)cc2/C1=C/c1cc(Br)c(O)c(Br)c1 [GW5074] | – | – | – | – | – | – | – | > 20 µM | > 20 µM | > 20 µM | > 20 µM | 0.28 µM | 0.47 µM | – | – | – |
| O=C1C(SCCO)=C(SCCO)C(=O)c2ccccc21 [NSC 95397] | 15 µM | moderately reduced phosphorylation of all four residues | – | 7.8 µM | 76.1% | 80% | 1.3 µM | – | – | – | – | – | – | – | – | – |
